Values after ≈ are worked out from the molar mass of the structure shown.
What was measured:
C. albicans ATCC 90028 = experiment: Antifungal susceptibility test (CLSI M27-A3 microdilution, resazurin), MIC90; settings: Candida albicans, ATCC90028, read-out: C. albicans ATCC 90028 MIC90
[1] = tested on: T. mentagrophytes (ATCC 11481); experiment: Antifungal susceptibility test (CLSI M38-A2 microdilution, resazurin), MIC90; settings: Trichophyton mentagrophytes, ATCC11481|ATCC28189, read-out: T. mentagrophytes ATCC 28189 MIC90
SCC-25 cells = experiment: MTT anticancer assay in SCC-25 cells; type: cell-based; settings: for IC50: MTT, 24 h; for SI (selectivity index): NOK-si versus SCC-25
Experimental: (§1) Boronic acid and benzoboroxole derivatives have been identified as potential anticancer agents. To investigate their efficacy against head and neck cancer cell lines, SCC-25 cells were utilized in this study, as a model for oral squamous cell carcinoma. Additionally, cytotoxicity was performed in normal oral keratinocytes NOK-si cells to evaluate the selective index of the compounds. […] The selectivity of the compounds is quantified by the selectivity index (SI), with those with an SI greater than 3.0 being considered promising for further evaluation, in accordance with internal protocols.
(§2) The SCC-25 was purchased from Rio de Janeiro Cell Bank, and NOK-si was kindly provided by Prof. Carlos Rossa from the School of Dentistry—UNESP. The cell lines were initially thawed and cultured in 25 cm^2 cell culture flasks. Cell growth was monitored using a microscope, and the culture medium was changed periodically. Upon reaching confluency, cell dissociation was achieved by adding 5 mL of trypsin (Sigma-Aldrich, St Louis, MO, USA) and incubating the bottles in a CO2 incubator for 10 min. Subsequently, the cells were transferred to 15 mL Falcon tubes and centrifuged at 2000 rpm for 10 min. Cell counting was performed using a Countess II FL automated cell counter (ThermoFischer, Waltham, MA, USA). The cells were seeded at a density of 30,000 cells per well in 96-well plates. The plates were then incubated at 37 °C in 5% CO2 for 24 h. Following this, test compounds were incubated for another 24 h at 10 different concentrations: 50, 25, 12.5, 6.25, 3.12, 1.56, 0.78, 0.39, 0.19, and 0.097 µg/mL. After the specified time, MTT reagent (3 mg/mL) (Sigma-Aldrich, St Louis, MO, USA) dissolved in phenol-free RPMI 1640 was added and incubated for 4 h. The formed MTT crystals were solubilized using 2-propanol P.A (Sigma-Aldrich, St Louis, MO, USA) with agitation. Absorbance was read at 562 nm using an EZ Read 400 microplate reader (Biochrom, Cambridge, UK) and ADAP 2.0 Biochrom software (version 2.0). IC50 values and graphs were calculated by Dr. Paula Aboud Barbugli using Excel and Prism software (version 10.4.1). The MTT assay results were evaluated for normality using the Shapiro–Wilk test, followed by one-way ANOVA with Tukey’s post hoc test at a significance level of 5%.

[2] = tested on: M. tuberculosis H37RV ATCC 27294 strain; experiment: Resazurin microtiter assay (REMA), MIC90; type: cell-based; settings: Mycobacterium tuberculosis, cut-off 25 µM
T. rubrum ATCC 28189 = experiment: Antifungal susceptibility test (CLSI M38-A2 microdilution, resazurin), MIC90; settings: Trichophyton rubrum, ATCC28189, read-out: T. rubrum ATCC 28189 MIC90
HaCaT cell line = experiment: Resazurin cytotoxicity assay using HaCaT cells; type: cell-based, human; settings: compared to the benzoboroxole derivatives 44 and 45
Experimental: For the cytotoxicity assay, the HaCaT cell line, which is characterized as immortalized normal human keratinocytes, was used.
For the cytotoxicity assay, the HaCat cell line, characterized as immortalized normal human keratinocytes, was used. The cells were maintained in (DMEM) supplemented with 10% of bovine fetal serum (BFS) (Sigma-Aldrich, St Louis, MO, USA) in cell culture bottles with 5% CO2 at 37 °C. After a confluence of 75%, the cells were treated with trypsin + EDTA 0.25%, centrifugated at 1500 rpm for 10 min, and 5 × 10^4 cells/well were seeded in 96-well plates for incubation for 24 h for cell adhesion before treatment. After adhesion, the cells were treated with 100 µL of the compounds 34 and 40, with fungi activity in concentrations between 3.90 and 125 µg/mL. Regarding the controls, DMSO in the concentration range of (1–4%) was used as a positive control for cytotoxicity; the beyond negative control comprised HaCaT cells only in DMEM medium (Sigma-Aldrich, St Louis, MO, USA). After 24 h of treatment, 30 µL of resazurin 50 µM was added to each well for 4 h, and the plates were read at 560 and 600 nm using microplate reader BioTek (Agilent, Santa Clara, CA, USA), Gen 5 software (version 2.09). The […] (IC50) for each compound was determined based on resazurin reduction. Three independent assays were performed.

NOK-si cells = experiment: MTT cytotoxicity assay in normal oral keratinocytes NOK-si; type: cell-based; settings: Keratinocyte, 24 h, read-out: NOK-si IC50
Experimental: as §1, §2

[3] = molecular target: leucyl-tRNA synthetase (LeuRS); parameters: method as in PMID 28953378, PMID 38365949; settings: cited from earlier work
[4] = tested on: M. tuberculosis H37Rv strains; settings: cited from earlier work
T. mentagrophytes = tested on: T. mentagrophytes; parameters: method as in PMID 29371574; settings: cited from earlier work
T. rubrum = tested on: T. rubrum; parameters: method as in PMID 29371574; settings: cited from earlier work
[5] = tested on: M. audouinii (ATCC 42558); parameters: method as in PMID 17588934; settings: cited from earlier work
[6] = tested on: T. rubrum (ATCC 1890, ATCC 18759); parameters: method as in PMID 17588934; settings: cited from earlier work
M. gypseum (ATCC 24103) = tested on: M. gypseum (ATCC 24103); parameters: method as in PMID 17588934; settings: cited from earlier work
[7] = tested on: E. floccosum (ATCC 525066); parameters: method as in PMID 17588934; settings: cited from earlier work
[8] = parameters: method as in PMID 26640371; settings: cited from earlier work
[9] = tested on: T. mentagrophytes (ATCC 28185); parameters: method as in PMID 17588934; settings: cited from earlier work

Row | SMILES | MIC90 [1] [µM] | IC50 (SCC-25 cells; Homo sapiens, SCC-25, 24 h) [µM] | SI (selectivity index) (SCC-25 cells) | MIC90 [2] [µM] | MIC90 (T. rubrum ATCC 28189) [µM] | CC50 (NOK-si cells) [µM] | other results
1 | CCC(C)n1ncn(-c2ccc(N3CCN(c4ccc(OCC5COC(Cn6cncn6)(c6ccc(Cl)cc6Cl)O5)cc4)CC3)cc2)c1=O (stereo not shown) [Itraconazole] | – | – | – | – | – | – | MIC90 (C. albicans ATCC 90028): 0.00034 µM (≈ 0.00024 µg/mL)
2 | O=C(Nc1ccc(N2CCCCCC2)c(F)c1)c1cccc(B(O)O)c1 [Compound 34, (3-{[4-(Azepan-1-yl)-3-fluorophenyl]carbamoyl}phenyl)boronic acid] | 21 (≈ 7.48 µg/mL) | 67.6 | 1.91 | > 25 | 42 (≈ 15 µg/mL) | 129 | cytotoxic effects in HaCaT cells (comparison in words) (HaCaT cell line): higher cytotoxic effects
3 | NC[C@H]1OB(O)c2c(OCCO)ccc(Cl)c21 [ganfeborole, (S)-3-(aminomethyl)-4-chloro-7-(2-hydroxyethoxy)benzo[c][1,2]oxaborol-1(3H)-ol] | – | – | – | – | – | – | IC50 [3]: 0.2 µM; MIC90 [4]: 0.08 µM (≈ 0.0206 µg/mL); MIC against M. tuberculosis H37Rv strains [4]: 0.08 µM (≈ 0.0206 µg/mL)
4 | OB1OCc2cc(F)ccc21 [Tavaborole] | – | – | – | – | – | – | MIC (fungistatic effects) (T. mentagrophytes): 8 µg/mL (≈ 52.7 µM); MIC (fungistatic effects) (T. rubrum): 8 µg/mL (≈ 52.7 µM); MIC [5]: 2.0 µg/mL (≈ 13.2 µM); MIC [6]: 2.0 µg/mL (≈ 13.2 µM); MIC (M. gypseum (ATCC 24103)): 2.0 µg/mL (≈ 13.2 µM); MIC [7]: 1.0 µg/mL (≈ 6.58 µM); rate of complete cure [8]: ≤ 10%; rate of mycological cure [8]: up to 36%; MIC [9]: 2.0 µg/mL (≈ 13.2 µM)
5 | O=C(Nc1ccc(N2CCCCCC2)c(F)c1)c1ccc(B(O)O)cc1 [Compound 40, (4-{[4-(Azepan-1-yl)-3-fluorophenyl]carbamoyl}phenyl)boronic acid] | 42 (≈ 15 µg/mL) | 85.1 | 1.49 | > 25 | 88 (≈ 31.3 µg/mL) | 127 | cytotoxic effects in HaCaT cells (comparison in words) (HaCaT cell line): higher cytotoxic effects
6 | O=C(Nc1ccc(N2CCN(c3ccccn3)CC2)c(F)c1)c1cccc(B(O)O)c1 [Compound 29, {3-({3-Fluoro-4-[4-(pyridin-2-yl)piperazin-1-yl]phenyl}carbamoyl)phenyl}boronic acid] | 297 (≈ 125 µg/mL) | 79.1 | <1 | > 25 | 297 (≈ 125 µg/mL) | 110 | IC50 (SCC-25 cells): 117 µM
7 | O=C(Nc1ccc(N2CCSCC2)c(F)c1)c1ccc2c(c1)COB2O [Compound 45, N-(3-fluoro-4-thiomorpholinophenyl)-1-hydroxy-1,3-dihydrobenzo[c][1,2]oxaborole-5-carboxamide] | 336 (≈ 125 µg/mL) | 83 | <1 | > 25 | 336 (≈ 125 µg/mL) | 65.8 | –

Reference: PMC11901438, “Synthesis and Evaluation of Boron-Containing Heterocyclic Compounds with Antimicrobial and Anticancer Activities” (Molecules, 2025)
